Reference: patent US20130059783A1, “COMPOSITIONS AND METHODS FOR EXPANDING BFU-E CELLS” (priority 2010, published 2013)

How the values were obtained:
BFU-E cells [1] = test: Serum free erythroid liquid expansion (SFELE) progenitor growth assay of sorted BFU-E cells; type: cell-based, mouse
Method: (§1) FIGS. 1A-1F. […] Error bars show one standard deviation. […] Error bars show one standard deviation. […] Shown is the fraction of c-kit+ cells after 72 hours. […] Cell numbers in each clone were estimated under the microscope on Day 8.
(§2) FIGS. 3A-3B. […] The experimental protocol was similar to that used in FIGS. 1A and B except that the CFU-E and BFU-E cells were purer (CD71 and CD24a^20% high and CD71 and CD24a^10% low, respectively). […] (A) Proliferation of sorted CFU-E cells. […] Error bars show one standard deviation. (B) Proliferation of sorted BFU-E cells. […] Error bars show one standard deviation.
FIG. 4. […] Cells were counted from day 4 until the day cell counts dropped.
(A) The total number of cells formed from 1000 BFU-E cells at different time points. […] Standard deviation between four separate biological experiments is shown in parenthesis (n/d=not determined).
(§3) We developed a modified version of the serum free erythroid liquid expansion culture (SFELE) medium described by Dolzning et al. (Dolznig et al., 2006).

CFU-E cells = test: SFELE progenitor growth assay of sorted CFU-E cells; type: cell-based, mouse; details: CD71 and CD24a 20% high cells, 100 nM Dex and/or 333 μM DMOG
Method: as §1, §2, §3

BFU-E cells [2] = test: CFU-E and BFU-E colony forming assays of BFU-E cells cultured in SFELE medium; type: cell-based, mouse; details: for Total colony numbers from 1,000 "BFU-E" cells: CFU-E 1 cluster / Total colony numbers from 1,000 "BFU-E" cells: large BFU-E >20 clusters / Total colony numbers from 1,000 "BFU-E" cells: small BFU-E 5-20 clusters: CD24 and CD71 10% low BFU-E cells, SFELE, 100 nM Dex and/or 333 μM DMOG
Method: Dexamethasone prevents BFU-E cell exhaustion, which allows more CFU-E cells to be formed. […] (A) The total number of cells formed from 1000 BFU-E cells at different time points. […] Standard deviation between four separate biological experiments is shown in parenthesis (n/d=not determined).
At daily intervals colony assays were performed (Table 2). As in the experiment in FIG. 3, for the first three days the total number of cells increased at the same rate in all cultures.
(§4) Colonies were scored after 3 days. […] The number of hemoglobinized early BFU-E and late BFU-E colonies was determined after 8-9 days following staining with 2,7-Diaminofluorene (Sigma Chemical, St. Louis, Mo.).

BFU-E cells [3] = test: Colony forming assays of sorted BFU-E fractions (Table S2); type: cell-based, mouse; details: CD71/CD24a 10% low cells, 100 nM Dex and/or 333 μM DMOG
Text: Separation of BFU-E and CFU-E cells by expression of CD71, CD24a or both CD71 and CD24a. C-kit positive BFU-E and CFU-E cells were sorted from FLEP cells based on expression of CD71, CD24a or both CD71 and CD24a. In all experiments the BFU-E fraction was the subset of c-kit^positive FLEP cells with the 10% lowest expression of CD71 and/or CD24a, while the CFU-E fraction was the subset with 20% highest expression of CD71 and/or CD24a. Sorted BFU-E and CFU-E populations were subjected to colony forming assays under two different conditions. […] The number of CFU-E colonies (±standard deviation) is shown. The sorted “BFU-E” populations mostly formed small CFU-E clusters rather than single CFU-E colonies in these assays. These CFU-E clusters are formed by precursors to CFU-Es and were scored separately as multi-CFU-Es. The number of “multi-CFU-Es” is not shown since these cells likely represent the same cells as those forming small BFU-E colonies.
The potential of the sorted cells to form large BFU-E, small BFU-E, CFU-G/M/Mk, and CFU-GEMM colonies (±standard deviation) was determined by a second assay in methyl cellulose containing 10U Epo, 20 nM IL-3, 20 nM IL-6 and 50 nM SCF per mL, and was scored at day 8-9. […] To determine the effect of DMOG, colony assays of sorted BFU-E (CD71 and CD24a^10% low) cells were also performed in the presence of 333 μM DMOG. In agreement with the finding that DMOG enhances BFU-E self-renewal BFU-E colonies were larger with a more immature appearance in the presence of DMOG and Dex. Therefore, in the presence of DMOG and Dex most BFU-E colonies were scored as “large BFU-Es.”
No GEMM colonies were formed (Table S2).
as §4

[4] = tested on: Lin-Sca-1-c-kit+ bone marrow progenitor population; test: SFELE culture of Lin neg, c-kit pos, Sca-1 neg bone marrow cells; type: cell-based, mouse; details: for Enhancement of proliferation by DMOG above the effect of Dex: bone marrow cells, 333 μM DMOG
Text: FIGS. 5A-5C. […] Total cell number was counted daily and normalized to the number of cells added to the culture. (n=4). Error bars show one standard deviation.
In the bone marrow BFU-E cells are found in the Lin^neg, c-kit^pos, Sca-1^neg fraction; this cell population contains mostly a mix of lineage restricted progenitor cells of which a minority are BFU-Es (Pronk et al., 2007).

[5] = tested on: human peripheral blood erythroid progenitors; test: Erythroblast formation from human mobilized peripheral blood CD34+ cells; type: cell-based; details: 100 μM DMOG with 1 nM Dex, human CD34+ derived progenitors
Method: FIG. 6. […] Human mobilized CD34+ cells were first thawed and cultured in serum free medium supplemented with StemSpan® CC100 cytokine mix containing rhSCF, rhFlt-3L, rhIL-3 and rhIL-6 for 5 days. […] Total cell number was counted every other day until cell numbers dropped at day 5+19. More than 95% of cells at the end of the culture have erythroblast morphology (data not shown). […] Error bars show one standard deviation.
An experiment was performed on human hematopoietic progenitor cells from mobilized peripheral blood CD34+ cells that were first cultured 5 days in serum-free medium containing rhSCF, rhFlt-3L, rhIL-3 and rhIL-6. […] Similarly to the murine cultures >95% of cells at the end of the culture are erythroblasts (data not shown).

FIH = FIH (Homo sapiens, UniProt Q9NWT6); details: cited from earlier work
FIH, sequence (Q9NWT6 whole entry): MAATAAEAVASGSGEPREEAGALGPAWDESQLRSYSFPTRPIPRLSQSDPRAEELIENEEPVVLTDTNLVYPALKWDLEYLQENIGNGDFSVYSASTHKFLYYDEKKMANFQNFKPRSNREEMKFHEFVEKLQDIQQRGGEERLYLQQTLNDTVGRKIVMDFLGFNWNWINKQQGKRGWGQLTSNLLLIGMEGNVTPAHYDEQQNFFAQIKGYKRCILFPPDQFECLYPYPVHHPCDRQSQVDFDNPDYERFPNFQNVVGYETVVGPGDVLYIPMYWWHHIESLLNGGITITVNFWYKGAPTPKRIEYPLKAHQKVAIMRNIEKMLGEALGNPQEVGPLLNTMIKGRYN

HIF prolyl hydroxylase = details: cited from earlier work
[6] = 333 μM DMOG and/or 100 nM Dex versus no additions
[7] = Day 3 of culture, 100 nM Dex or 333 μM DMOG alone

For COC(=O)CNC(=O)C(=O)OC [DMOG, dimethyloxalylglycine], the “Relative increase in total erythroblast output per BFU-E” value (BFU-E cells [1]; [6]) was 2.5 fold, the “Enhancement of BFU-E proliferation by DMOG” value (BFU-E cells [1]; 333 μM DMOG with 10 nM Dex) was 10 fold and the “Increase by DMOG of BFU-E proliferation in the presence of Dex” value (BFU-E cells [1]; 333 μM DMOG with 100 nM Dex versus Dex alone) was 7.3 fold. The “Increase of total number of cells after the first three days” value (BFU-E cells [1]; CD24 and CD71 10% low BFU-E cells, 100 nM Dex and/or 333 μM DMOG) was “remained constant”, the “Total cell expansion from 1000 "BFU-E" cells, liquid culture” value (from here on “Total cell expansion”) (BFU-E cells [1]; CD24 and CD71 10% low BFU-E cells, SFELE, 100 nM Dex and/or 333 μM DMOG, day 1) was 4,200 and the “Total cell expansion” value (BFU-E cells [1]; CD24 and CD71 10% low BFU-E cells, SFELE, 100 nM Dex and/or 333 μM DMOG, day 2) was 26,000. The “Total cell expansion” value (BFU-E cells [1]; CD24 and CD71 10% low BFU-E cells, SFELE, 100 nM Dex and/or 333 μM DMOG, day 3) was 130,000, the “Total cell expansion” value (BFU-E cells [1]; CD24 and CD71 10% low BFU-E cells, SFELE, 100 nM Dex and/or 333 μM DMOG, day 4) was 430,000 and the “Total cell expansion” value (BFU-E cells [1]; CD24 and CD71 10% low BFU-E cells, SFELE, 100 nM Dex and/or 333 μM DMOG, day 5) was 820,000. For the same compound, the “Total cell expansion” value (BFU-E cells [1]; CD24 and CD71 10% low BFU-E cells, SFELE, 100 nM Dex and/or 333 μM DMOG, day 6) was 890,000, the “Total cell expansion” value (BFU-E cells [1]; CD24 and CD71 10% low BFU-E cells, SFELE, 100 nM Dex and/or 333 μM DMOG, day 7) was 1,200,000 and the “Total cell expansion” value (BFU-E cells [1]; CD24 and CD71 10% low BFU-E cells, SFELE, 100 nM Dex and/or 333 μM DMOG, day 8) was 1,200,000. The “Increase of proliferation of sorted BFU-E cells” value (BFU-E cells [1]; CD71 and CD24a 10% low cells, SFELE, 100 nM Dex and/or 333 μM DMOG, versus no additions) was 2 fold, the “Increase of proliferation of sorted CFU-E cells” value (CFU-E cells) was “do not significantly increase proliferation” and the “Relative increase in CFU-E output per BFU-E” value (BFU-E cells [2]; [6]) was 2.1 fold. The “Total colony numbers from 1,000 "BFU-E" cells: CFU-E 1 cluster” value (“Total colony numbers … CFU-E 1 cluster” below) (BFU-E cells [2]; day 0 (before culture)) was 30 (±11), the “Total colony numbers from 1,000 "BFU-E" cells: large BFU-E >20 clusters” value (from here on “Total colony numbers … large BFU-E >20 clusters”) (BFU-E cells [2]; day 0 (before culture)) was 423 (±31) and the “Total colony numbers from 1,000 "BFU-E" cells: small BFU-E 5-20 clusters” value (from here on “Total colony numbers … small BFU-E 5-20 clusters”) (BFU-E cells [2]; day 0 (before culture)) was 262 (±64). For the same compound, the “Total colony numbers … CFU-E 1 cluster” value (BFU-E cells [2]; day 1) was 637 (±227), the “Total colony numbers … large BFU-E >20 clusters” value (BFU-E cells [2]; day 1) was 428 (±72) and the “Total colony numbers … small BFU-E 5-20 clusters” value (BFU-E cells [2]; day 1) was 1,284 (±683). The “Total colony numbers … CFU-E 1 cluster” value (BFU-E cells [2]; day 2) was 6,991 (±1,226), the “Total colony numbers … large BFU-E >20 clusters” value (BFU-E cells [2]; day 2) was 217 (±33) and the “Total colony numbers … small BFU-E 5-20 clusters” value (BFU-E cells [2]; day 2) was 3,232 (±1,416). The “Total colony numbers … CFU-E 1 cluster” value (BFU-E cells [2]; day 3) was 23,685 (±5,919), the “Total colony numbers … large BFU-E >20 clusters” value (BFU-E cells [2]; day 3) was 156 (±69) and the “Total colony numbers … small BFU-E 5-20 clusters” value (BFU-E cells [2]; day 3) was 4,399 (±2,039). The “Total colony numbers … CFU-E 1 cluster” value (BFU-E cells [2]; day 4) was 27,530 (±13,756), the “Total colony numbers … CFU-E 1 cluster” value (BFU-E cells [2]; day 5) was 26,730 (±9,557) and the “Total colony numbers … large BFU-E >20 clusters” value (BFU-E cells [2]; day 5) was 0. For the same compound, the “Total colony numbers … small BFU-E 5-20 clusters” value (BFU-E cells [2]; day 5) was 1,000 (±365), the “Total colony numbers … CFU-E 1 cluster” value (BFU-E cells [2]; day 6) was 9,598 (±8,627) and the “BFU-Es per plated BFU-E” value (BFU-E cells [2]; [7]) was 4.8. The “CFU-Es per plated BFU-E” value (BFU-E cells [2]; [7]) was 24, the CFU-E colonies (BFU-E cells [3]) was 21 (±11) colonies per 1000 plated cells and the CFU-G/M/Meg colonies (BFU-E cells [3]) was 5 (±6) colonies per 1000 plated cells. For the same compound, the GEMM colonies (BFU-E cells [3]) was 0 colonies per 1000 plated cells, the “large BFU-E colonies” value (BFU-E cells [3]) was 164 (±23) colonies per 1000 plated cells and the “small BFU-E colonies” value (BFU-E cells [3]) was 243 (±30) colonies per 1000 plated cells. The “Effect on proliferation of bone marrow cells” value ([4]; 333 μM DMOG alone, 1 nM and 100 nM Dex) was “little if any effect”, the “Enhancement of proliferation by DMOG above the effect of Dex” value ([4]; 1 nM Dex) was 2.1 fold and the “Enhancement of proliferation by DMOG above the effect of Dex” value ([4]; 10 nM Dex (so in the source)) was 2.4 fold. For the same compound, the “Erythroblasts formed relative to cultures with Dex alone” value [5] was about 10 times.

In the case of O=C(O)C(=O)N[C@H](Cc1ccccc1)C(=O)O [N-oxalyl-d-phenylalanine], the “Inhibition of FIH” value (FIH) is given as “inhibit the FIH” and the “Inhibition of a HIF prolyl hydroxylase” value (HIF prolyl hydroxylase) is given as “not a HIF prolyl hydroxylase”.
